This is an account of results in patent publication US11802120B2, “Fused cyclic urea derivatives as CRHR2 antagonist” (RaQualia Pharma Inc., priority 2018, dated 2023).

Broadly, the IC50 is the concentration that gives 50% inhibition.

In the assay the target is T1, human CRHR2-alpha (Homo sapiens, UniProt Q13324).
T1 sequence (Q13324 1-411): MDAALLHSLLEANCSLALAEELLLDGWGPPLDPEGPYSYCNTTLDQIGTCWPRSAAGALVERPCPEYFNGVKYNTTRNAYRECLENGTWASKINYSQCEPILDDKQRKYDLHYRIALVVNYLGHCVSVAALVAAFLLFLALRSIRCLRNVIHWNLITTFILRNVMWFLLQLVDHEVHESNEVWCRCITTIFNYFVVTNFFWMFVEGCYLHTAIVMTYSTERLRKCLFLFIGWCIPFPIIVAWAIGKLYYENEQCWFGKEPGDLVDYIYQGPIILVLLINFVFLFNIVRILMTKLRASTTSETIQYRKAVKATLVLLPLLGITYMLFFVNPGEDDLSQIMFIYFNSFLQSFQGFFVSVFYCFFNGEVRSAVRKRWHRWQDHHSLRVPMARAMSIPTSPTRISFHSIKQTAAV
Briefly: cAMP functional assay for human CRHR2 (LANCE Ultra cAMP, TR-FRET). Type of assay: cell-based. To be noted: CHO-K1 cells expressing human CRHR2-alpha, agonist human urocortin2 at EC80, cAMP; read-out: IC50 against CRHR2. The procedure, abridged: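 First, starved and frozen CHO-K1 cells expressing the receptor are thawed into IBMX-containing HBSS buffer (pH 7.4). Next, compounds are added for 30 min at 25° C. Then agonist at EC80 (urocortin2 or CRF, per receptor) is added for another 30 min, followed by cAMP detection reagents.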
Background: TR-FRET usually uses a lanthanide donor and a delayed reading to cut background.
As for `CNC(=O)c1ccc(-n2c(=O)n(C[C@H]3CC[C@H](NC(=O)c4cc(C(F)(F)F)ccc4Cl)CC3)c3ccccc32)cn1` [Example 490, 5-(3-(((1r,4r)-4-(2-chloro-5-(trifluoromethyl)benza-mido)cyclohexyl)methyl)-2-oxo-2,3-dihydro-1H-benzo[d]imidazol-1-yl)-N-methylpicolinamide], the IC50 is < 300 nM.
For `CNC(=O)c1ccc(-n2c(=O)n(C[C@H]3CC[C@H](NC(=O)c4cc(C(F)(F)F)cnc4C)CC3)c3ccccc32)cn1` [Example 491, N-methyl-5-(3-(((1r,4r)-4-(2-methyl-5-(trifluoromethyl)nicotinamido)cyclohexyl)methyl)-2-oxo-2,3-dihydro-1H-benzo[d]imidazol-1-yl) picolinamide], the IC50 was < 300 nM.
The result for `CNC(=O)c1ccc(-n2c(=O)n(C[C@H]3CC[C@H](NC(=O)c4cc(C)ccc4C(F)(F)F)CC3)c3ccccc32)cn1` [Example 492, N-methyl-5-(3-(((1r,4r)-4-(5-methyl-2-(trifluoro-methyl)benzamido)cyclo-hexyl)methyl)-2-oxo-2,3-dihydro-1H-benzo[d]imidazol-1-yl)picolinamide] reads < 300 nM; that for `O=C(N[C@H]1CC[C@H](Cn2c(=O)n(-c3ccc4nccnc4c3)c3ccccc32)CC1)c1cc(Cl)cnc1C(F)F` [Example 495, 5-chloro-2-(difluoromethyl)-N-((1r,4r)-4-((2-oxo-3-(quinoxalin-6-yl)-2,3-dihydro-1H-benzo[d]imidazol-1-yl)methyl)cyclo-hexyl)nicotinamide], < 300 nM.
The same measure for `O=C(N[C@H]1CC[C@H](Cn2c(=O)n(-c3ccncc3Cl)c3ncccc32)CC1)c1cc(Cl)cnc1C(F)F` [Example 496, 5-chloro-N-((1r,4r)-4-((3-(3-chloropyridin-4-yl)-2-oxo-2,3-dihydro-1H-imidazo[4,5-b]pyridin-1-yl)methyl)cyclohexyl)-2-(difluoromethyl)nicotinamide]: < 300 nM; for `Cc1ncc(Cl)cc1C(=O)N[C@H]1CC[C@H](Cn2c(=O)n(-c3ccc4c(c3)cc(CO)n4C)c3ccccc32)CC1` [Example 497, 5-chloro-N-((1r,4r)-4-((3-(2-(hydroxymethyl)-1-methyl-1H-indol-5-yl)-2-oxo-2,3-dihydro-1H-benzo[d]imidazol-1-yl)methyl)cyclohexyl)-2-methylnicotinamide]: < 300 nM; for `O=C(N[C@H]1CC[C@H](Cn2c(=O)n(-c3ccc(N4CCCC4=O)nc3)c3ccccc32)CC1)c1cc(Cl)cnc1C(F)F` [Example 498, 5-chloro-2-(difluoromethyl)-N-((1r,4r)-4-((2-oxo-3-(6-(2-oxopyrrolidin-1-yl)pyridin-3-yl)-2,3-dihydro-1H-benzo[d]imidazol-1-yl)methyl)cyclohexyl)nicotinamide]: < 300 nM.
The same measure for `N#Cc1ccccc1-n1c(=O)n(C[C@H]2CC[C@H](NC(=O)c3cc(Cl)cnc3C(F)F)CC2)c2ccccc21` [Example 499, 5-chloro-N-((1r,4r)-4-((3-(2-cyanophenyl)-2-oxo-2,3-dihydro-1H-benzo[d]imidazol-1-yl)methyl)cyclo-hexyl)-2-(difluoromethyl) nicotinamide]: < 300 nM.
With `CNC(=O)COc1ccc(-n2c(=O)n(C[C@H]3CC[C@H](NC(=O)c4cc(Cl)cnc4C(F)F)CC3)c3ccccc32)cn1` [Example 500, 5-chloro-2-(difluoromethyl)-N-((1r,4r)-4-((3-(6-(2-(methylamino)-2-oxoethoxy)pyridin-3-yl)-2-oxo-2,3-dihydro-1H-benzo[d]imidazol-1-yl)methyl)cyclohexyl)nicotinamide], the concentration for half-maximal inhibition (IC50) was < 300 nM.
Take `O=C(N[C@H]1CC[C@H](Cn2c(=O)n(-c3ccc(N4CCC4=O)nc3)c3ccccc32)CC1)c1cc(Cl)cnc1C(F)F` [Example 501, 5-chloro-2-(difluoromethyl)-N-((1r,4r)-4-((2-oxo-3-(6-(2-oxoazetidin-1-yl)pyridin-3-yl)-2,3-dihydro-1H-benzo [d]imidazol-1-yl)methyl)cyclo-hexyl)nicotinamide]: the IC50 is < 300 nM.
The result for `O=C(N[C@H]1CC[C@H](Cn2c(=O)n(-c3ccc(NC(=O)C4CC4)nc3)c3ccccc32)CC1)c1cc(Cl)cnc1C(F)F` [Example 502, 5-chloro-N-((1r,4r)-4-((3-(6-(cyclopropanecarboxa-mido)pyridin-3-yl)-2-oxo-2,3-dihydro-1H-benzo[d]imidazol-1-yl)methyl)cyclohexyl)-2-(difluoro-methyl)nicotinamide] reads < 300 nM; that for `C[C@@H](Oc1ccc(-n2c(=O)n(C[C@H]3CC[C@H](NC(=O)c4cc(Cl)cnc4C(F)F)CC3)c3ccccc32)cn1)C(N)=O` [Example 504, N-((1R,4r)-4-((3-(6-(((R)-1-amino-1-oxopropan-2-yl)oxy)pyridin-3-yl)-2-oxo-2,3-dihydro-1H-benzo[d]imidazol-1-yl)methyl)cyclohexyl)-5-chloro-2-(difluoromethyl) nicotinamide], < 300 nM; that for `O=C(N[C@H]1CC[C@H](Cn2c(=O)n(-c3ccc(N4CCOCC4=O)nc3)c3ccccc32)CC1)c1cc(Cl)cnc1C(F)F` [Example 505, 5-chloro-2-(difluoromethyl)-N-((1r,4r)-4-((2-oxo-3-(6-(3-oxomorpholino)pyridin-3-yl)-2,3-dihydro-1H-benzo[d]imidazol-1-yl)methyl)cyclo-hexyl)nicotinamide], < 300 nM.
Consider `Cc1ccc(-n2c(=O)n(C[C@H]3CC[C@H](NC(=O)c4cc(Cl)cnc4C(F)F)CC3)c3nccnc32)cc1` [Example 506, 5-chloro-2-(difluoromethyl)-N-((1r,4r)-4-((2-oxo-3-(p-tolyl)-2,3-dihydro-1H-imidazo[4,5-b]pyrazin-1-yl)methyl)cyclohexyl)nicotinamide], for which the concentration for half-maximal inhibition (IC50) was < 300 nM.
As for `COc1ccc(C#N)c(-n2c(=O)n(C[C@H]3CC[C@H](NC(=O)c4cc(Cl)cnc4C(F)F)CC3)c3cccnc32)c1` [Example 507, 5-chloro-N-((1r,4r)-4-((3-(2-cyano-5-methoxyphenyl)-2-oxo-2,3-dihydro-1H-imidazo [4,5-b]pyridin-1-yl)methyl)cyclohexyl)-2-(difluoromethyl) nicotinamide], the IC50 was < 300 nM.
The same measure for `CC(=O)Nc1ccc(-n2c(=O)n(C[C@H]3CC[C@H](NC(=O)c4cc(Cl)cnc4C(F)F)CC3)c3ccccc32)cn1` [Example 508, N-((1r,4r)-4-((3-(6-aceta-midopyridin-3-yl)-2-oxo-2,3-dihydro-1H-benzo[d]imidazol-1-yl)methyl)cyclo-hexyl)-5-chloro-2-(difluoro-methyl)nicotinamide]: < 300 nM; for `O=C(N[C@H]1CC[C@H](Cn2c(=O)n(-c3ccc(N4CCCCC4=O)nc3)c3ccccc32)CC1)c1cc(Cl)cnc1C(F)F` [Example 509, 5-chloro-2-(difluoromethyl)-N-((1r,4r)-4-((2-oxo-3-(6-(2-oxopiperidin-1-yl)pyridin-3-yl)-2,3-dihydro-1H-benzo[d]imidazol-1-yl)methyl)cyclohexyl)nicotinamide]: < 300 nM.
The same measure for `CCC(=O)Nc1ccc(-n2c(=O)n(C[C@H]3CC[C@H](NC(=O)c4cc(Cl)cnc4C(F)F)CC3)c3ccccc32)cn1` [Example 510, 5-chloro-2-(difluoromethyl)-N-((1r,4r)-4-((2-oxo-3-(6-propionamidopyridin-3-yl)-2,3-dihydro-1H-benzo[d]imidazol-1-yl)methyl)cyclo-hexyl)nicotinamide]: < 300 nM.
Turning to `Cc1ncc(Cl)cc1C(=O)N[C@H]1CC[C@H](Cn2c(=O)n(-c3ccc(-n4ccnn4)nc3)c3ccccc32)CC1` [Example 511, N-((1r,4r)-4-((3-(6-(1H-1,2,3-triazol-1-yl)pyridin-3-yl)-2-oxo-2,3-dihydro-1H-benzo[d]imidazol-1-yl)methyl)cyclohexyl)-5-chloro-2-methylnicotinamide], the IC50 was < 300 nM.
The result for `Cc1ncc(Cl)cc1C(=O)N[C@H]1CC[C@H](Cn2c(=O)n(-c3ccc(-n4nccn4)nc3)c3ccccc32)CC1` [Example 512, N-((1r,4r)-4-((3-(6-(2H-1,2,3-triazol-2-yl)pyridin-3-yl)-2-oxo-2,3-dihydro-1H-benzo[d]imidazol-1-yl)methyl)cyclohexyl)-5-chloro-2-methylnicotinamide] reads < 300 nM; that for `Cc1ncc(Cl)cc1C(=O)N[C@H]1CC[C@H](Cn2c(=O)n(C3CCN(c4cccnc4)CC3)c3ccccc32)CC1` [Example 513, 5-chloro-2-methyl-N-((1r,4r)-4-((2-oxo-3-(1-(pyridin-3-yl)piperidin-4-yl)-2,3-dihydro-1H-benzo [d]imidazol-1-yl)methyl)cyclohexyl)nicotinamide], < 300 nM; that for `CC(C)Nc1ccc(-n2c(=O)n(C[C@H]3CC[C@H](NC(=O)c4cc(Cl)cnc4C(F)F)CC3)c3ccccc32)cn1` [Example 514, 5-chloro-2-(difluoromethyl)-N-((1r,4r)-4-((3-(6-(iso-propylamino)pyridin-3-yl)-2-oxo-2,3-dihydro-1H-benzo [d]imidazol-1-yl)methyl)cyclohexyl)nicotinamide], < 300 nM.
The same measure for `CC(F)(F)CNc1ccc(-n2c(=O)n(C[C@H]3CC[C@H](NC(=O)c4cc(Cl)cnc4C(F)F)CC3)c3ccccc32)cn1` [Example 515, 5-chloro-2-(difluoromethyl)-N-((1r,4r)-4-((3-(6-((2,2-difluoropropyl)amino)pyridin-3-yl)-2-oxo-2,3-dihydro-1H-benzo[d]imidazol-1-yl)methyl)cyclohexyl)nicotinamide]: < 300 nM.
